Results: the OligoGym collection
These antisense oligonucleotides have a phosphorothioate backbone; sugars and methylation of C are not fully specified.

Tests used:
Conditions in all cases: ASO
GNA12 = molecular target: GNA12
GNAS = molecular target: GNAS
GNA13 = molecular target: GNA13
Also: test concentration or dose not given here.

Sequence | remaining target (mRNA or protein) (fraction of control) (GNAS) | remaining target (mRNA or protein) (fraction of control) (GNA13) | further results
GGCAGCGGCTGAGGGTCC |  |  | remaining target (mRNA or protein) (fraction of control) (GNA12): 0.68
TGCTGCTGCTGTTTTATTTA | 0.62 |  | 
CCAGCAGCGCGTCGATGT |  |  | remaining target (mRNA or protein) (fraction of control) (GNA12): 0.29
GGTGGAAGAGTGGCTTGC |  |  | remaining target (mRNA or protein) (fraction of control) (GNA12): 0.65
GCTGCTGTTTTATTTATTTT | 0.75 |  | 
TGGTTGCCTTCTCACTGTCT | 0.62 |  | 
GGTTTCGCAAAATCACTCGG | 0.41 |  | 
TTTTCAGAATACTGCCAA |  |  | remaining target (mRNA or protein) (fraction of control) (GNA12): 0.63
AGTGAGAGGGAACTTTTGTG | 0.41 |  | 
TGGTCTCGAAGATGTTCA |  |  | remaining target (mRNA or protein) (fraction of control) (GNA12): 0.53
TTTATTTCATTTTATTTGTT | ≥ 1 |  | 
CTTTTATTTCATTTTATTTG | 0.97 |  | 
TGTTTCTTTTATTTCATTTT | ≥ 1 |  | 
TGCTGCTGTTTTATTTATTT | ≥ 1 |  | 
CCATGCTTCTCATTTTCA |  |  | remaining target (mRNA or protein) (fraction of control) (GNA12): 0.49
ACACGGCGGATGTTCTCAGT | 0.39 |  | 
TTCTTTTATTTCATTTTATT | ≥ 1 |  | 
ACAAGAACCCTTGAGCCC |  |  | remaining target (mRNA or protein) (fraction of control) (GNA12): 0.74
TCCGGTCCAAGTTGTCCA |  |  | remaining target (mRNA or protein) (fraction of control) (GNA12): 0.88
GGTGCGCCTGTCCTCCAT |  |  | remaining target (mRNA or protein) (fraction of control) (GNA12): 0.33
TGCCTTCTCACTGTCTCCAT | 0.75 |  | 
ACTGCCAAGGAATGCCAA |  |  | remaining target (mRNA or protein) (fraction of control) (GNA12): ≥ 1
ACGGCGGATGTTCTCAGTGT | 0.71 |  | 

Sequence | remaining target (mRNA or protein) (fraction of control) (GNAS) | remaining target (mRNA or protein) (fraction of control) (GNA13) | further results
AGGTGAAATGAGGGTAGCAG | ≥ 1 |  | 
CATGGAACACGAAGCGGA |  |  | remaining target (mRNA or protein) (fraction of control) (GNA12): 0.57
TTGCCTTCTCACTGTCTCCA | 0.56 |  | 
TCATTTGTTTCTTTTATTTC | 0.85 |  | 
TGTTTGCTGCTGCTGTTTTA | 0.96 |  | 
GCGCTGAATGATGTCACGGC | 0.38 |  | 
TTGTTTGCTGCTGCTGTTTT | 0.45 |  | 
TGAATGATGTCACGGCAGTC | 0.69 |  | 
CATTTGTTTCTTTTATTTCA | 0.65 |  | 
TTTTACTGAAAGTGAGAGGG | 0.9 |  | 
GAATGATGTCACGGCAGTCG | 0.39 |  | 
TTTCTTTTATTTCATTTTAT | ≥ 1 |  | 
TATTTCATTTGTTTATTTTA | ≥ 1 |  | 
GTTTGCTGCTGCTGTTTTAT | 0.53 |  | 
TCTTTTATTTCATTTTATTT | 0.84 |  | 
TTTATTTCATTTGTTTCTTT | 0.93 |  | 
ATTTGTTTGCTGCTGCTGTT | 0.81 |  | 
TGCGCTGAATGATGTCACGG | 0.41 |  | 
GTGAAATGAGGGTAGCAGTA | ≥ 1 |  | 
GCAGGTGAAATGAGGGTAGC | ≥ 1 |  | 
TCACGTTGCTGTAGATGG |  | ≥ 1 | 
TGAGAGGGAACTTTTGTGGC | 0.72 |  | 
AAGCAAGTCTGTCTTGTT |  | 0.79 | 

Sequence | remaining target (mRNA or protein) (fraction of control) (GNAS) | remaining target (mRNA or protein) (fraction of control) (GNA13) | further results
CGAGACAGGCATTTGTCG |  | ≥ 1 | 
CTTGCGTTGCTGCTCGGC |  | 0.36 | 
TGCCTTTGGTGGGTCTTC |  | 0.51 | 
TACTGAAAGTGAGAGGGAAC | 0.65 |  | 
GAAAACCCTTGTTTCCAC |  | 0.33 | 
ATATTTATTTCATTTGTTTC | 0.61 |  | 
CACGGCGGATGTTCTCAGTG | 0.44 |  | 
GACAGGCATTTGTCGATC |  | ≥ 1 | 
GATGTTCTCAGTGTCCACAG | 0.45 |  | 
GGTTCCCTTCTTAGAGCAGC | ≥ 1 |  | 
GTTGTGATGGAATATAAT |  | ≥ 1 | 
TCGAAACATTCAAACCAA |  | 0.42 | 
AGCGCAGGTGAAATGAGGGT | ≥ 1 |  | 
GAAATAGTCTTTGATGCT |  | 0.61 | 
CGTAGAATTAAGATTGTT |  | ≥ 1 | 
GTTTCGCAAAATCACTCGGG | 0.5 |  | 
CATAGGTCTTTTCCCGAG |  | 0.52 | 
ATGTTCTCAGTGTCCACAGC | 0.58 |  | 
GGTTGCCTTCTCACTGTCTC | 0.58 |  | 
GCCGCCGCCGCCGCCTCG |  | ≥ 1 | 
CCGCCGCCTCGCCGCCTC |  | 0.33 | 
TGTTCTCAGTGTCCACAGCG | 0.39 |  | 
TTTGTTTCTTTTATTTCATT | 0.83 |  | 

Sequence | remaining target (mRNA or protein) (fraction of control) (GNAS) | remaining target (mRNA or protein) (fraction of control) (GNA13) | further results
ACTAAGATTTTCAAGAAG |  | 0.61 | 
CTGAATGATGTCACGGCAGT | 0.63 |  | 
TCGAAGTCCTGCCCGTGG |  | ≥ 1 | 
ACTGAAAGTGAGAGGGAACT | ≥ 1 |  | 
TCTGGTTCTCCAAGTTTA |  | 0.25 | 
TTACTGAAAGTGAGAGGGAA | ≥ 1 |  | 
TATCCAAGTTATCCAGGA |  | 0.48 | 
TTGTACATCACTGTAGCA |  | 0.41 | 
GCGCAGGTGAAATGAGGGTA | 0.9 |  | 
CTCCATGTTGTTGGTTTG |  | 0.46 | 
TTTGGAACATCTAAGCAAGC | 0.97 |  | 
TTTCATTTGTTTCTTTTATT | ≥ 1 |  | 
ATATGAAGCTTCTCTCGA |  | 0.42 | 
GTCGATCTCCTTGGACTT |  | 0.65 | 
TTGAGGTTGTCATGCAGA |  | 0.73 | 
CGCAGGTGAAATGAGGGTAG | 0.35 |  | 
TTGCTGCTGCTGTTTTATTT | ≥ 1 |  | 
CGGCGGATGTTCTCAGTGTC | 0.32 |  | 
CATCTGCTTCAGGAAGGT |  | 0.55 | 
GAGCATCAACCAGCACCC |  | 0.11 | 
TTTCATTTTATTTGTTTGCT | ≥ 1 |  | 
CGTTTGTTCCGGAAACAT |  | 0.76 | 
TATCCTTCACGTCGCGGA |  | ≥ 1 | 

Sequence | remaining target (mRNA or protein) (fraction of control) (GNAS) | remaining target (mRNA or protein) (fraction of control) (GNA13) | further results
AGTGGTGAAGTGGTGGTA |  | 0.43 | 
AACAGATCAAAGCCTGCA |  | 0.64 | 
ACGACATCATCTTATCTC |  | 0.39 | 
TATTTATTTCATTTGTTTCT | ≥ 1 |  | 
TTTGTTTGCTGCTGCTGTTT | 0.96 |  | 
TTATTTCATTTTATTTGTTT | 0.92 |  | 
CGCGCCCAGCAGCAGGAT |  | 0.75 | 
TCACCAGCCGCTTCACAT |  | 0.23 | 
GCGCTGGTCGAAGTCCTG |  | 0.7 | 
TTGTTTCTTTTATTTCATTT | ≥ 1 |  | 
GGGTTTCGCAAAATCACTCG | 0.61 |  | 
CAGGTGAAATGAGGGTAGCA | ≥ 1 |  | 
CACACGGACAGCACGGAC |  | 0.77 | 
TTTTATTTCATTTTATTTGT | 0.91 |  | 
GTTGCCTTCTCACTGTCTCC | 0.75 |  | 
TTTGCTGCTGCTGTTTTATT | 0.66 |  | 
ACCCAGTTGAAATTCTCG |  | 0.43 | 
GTTTCTTTTATTTCATTTTA | ≥ 1 |  | 
CAGCTTTCAGCCACAAAC |  | 0.99 | 
TCATTTTATTTGTTTGCTGC | 0.75 |  | 
ATTTATTTCATTTGTTTCTT | ≥ 1 |  | 
GGGTTCCCTTCTTAGAGCAG | 0.52 |  | 
GCTGCTGCTGTTTTATTTAT | 0.43 |  | 

Sequence | remaining target (mRNA or protein) (fraction of control) (GNAS) | remaining target (mRNA or protein) (fraction of control) (GNA13) | further results
AGCACACGGACAGCACGG |  | 0.51 | 
TGTTCAGAGACTCTGTAA |  | 0.47 | 
ATATTGTAAGAAAACCCT |  | ≥ 1 | 
TTCATTTGTTTCTTTTATTT | ≥ 1 |  | 
ACACACGGCGGATGTTCTCA | 0.42 |  | 
GTGAGAGGGAACTTTTGTGG | 0.72 |  | 
ATTTGGAACATCTAAGCAAG | 0.66 |  | 
GCCTCGCCACTCGTCAGC |  | 0.5 | 
TATTGATGTCACACTGTC |  | 0.48 | 
CTTTTCCCGAGACAGGCA |  | 0.08 | 
TCTTATAGCAGGAAGATA |  | ≥ 1 | 
CTTTGGTTGCCTTCTCACTG | 0.55 |  | 
CTGCTGCTGTTTTATTTATT | 0.63 |  | 
CACTTGAGGAAACAAGGA |  | 0.38 | 
CCTTGTTTCCACCATTCC |  | 0.07 | 
TATTTGTTTGCTGCTGCTGT | ≥ 1 |  | 
TCGCCCGCGCCCAGCAGC |  | 0.31 | 
AAGCATTTTGAAAGGAAC |  | ≥ 1 | 
ATTTCATTTGTTTCTTTTAT | 0.76 |  | 
TGCTCGGCCTCGCCACTC |  | 0.52 | 
CATTTTATTTGTTTGCTGCT | 0.65 |  | 
TTCATTTTATTTGTTTGCTG | 0.79 |  | 
TTATTTCATTTGTTTCTTTT | 0.64 |  | 
